Test results as given in patent US20170056380A1, “Systems, Methods, Techniques, and Compounds in Research and Treatment of Portal Hypertension and other Conditions” (priority 2014, published 2017).

Test system: protein kinase B (Akt)
Assay: Akt phosphorylation (Ser473) and total Akt by immunoblotting in sinusoidal endothelial cells
Type: cell-based, rat
Procedure: Cell isolation and culture. Sinusoidal endothelial cells were isolated from male Sprague-Dawley rats (450-500 g) (Harlan, Indianapolis, Ind.). In brief, after in situ perfusion of the liver with 20 mg/100 mg pronase (Roche Molecular Biochemicals, Indianapolis, Ind.), followed by collagenase (Worthington Biochemical, Lakewood, N.J.), dispersed cell suspensions were removed from a layered discontinuous density gradient of 8.2 and 15.6% Accudenz (Accurate Chemical and Scientific, Westbury, N.Y.), further purified by centrifugal elutriation (18 ml/min flow), and were grown in medium containing 20% serum (10% horse/calf). The purity of endothelial cells was documented by their uptake of fluorescently labeled di-l-acetoacetylated low-density lipoprotein as described (21). Only primary sinusoidal endothelial isolates of >95% purity were used for study. Experiments were performed with cells frorrr a minimum three different isolations (for all experiments).
Immunoblotting, Immunoblotting was performed by using specified primary antibodies, including anti-eNOS antibody (1:1,000; BD Transduction Laboratories, San Jose, Calif.), anti-phospho-eNOS-Ser^1177 (1:1,000; BD Transduction Laboratories or Cell Signaling Technology), anti-phospho-Akt, anti-Akt (Cell Signaling Technology, Beverly, Mass.), and horseradish peroxidase-conjugated secondary antibody. Specific signals were visualized using enhanced chemiluminescence as per the manufacturer's instructions and were scanned and quantitated with standard software.
Animal model of liver injury and portal hypedension. Liver injury and portal hypertension were induced by performing bile duct ligation in 450- to 500-gram male retired breeder Sprague-Dawley rats as described in Liu and 20- to 25-gram male BALB/c mice. Briefly, bile duct ligation was performed by surgical isolation and ligation of the common bile duct. […] A calibrated low-pressure transducer (Digi-Med, Louisville, Ky.) was connected to the portal vein catheter, and portal pressure was recorded continuously using the Digi-Med Integrator 200 System (Digi-bled).

SMILES: Cc1ncc2c(c1O)COC2c1ccc(Cl)cc1 (stereo not drawn) [cicletanine, 3-(4-chlorophenyl)-1,3-dihydro-7-hydroxy-6-methylfuro-(3,4-c) pyridine]
- Akt phosphorylation at Ser473 (50 or 100 nM, normal sinusoidal endothelial cells): increased
- total Akt expression (normal sinusoidal endothelial cells): without a change
- Akt phosphorylation (sinusoidal endothelial cells injured by bile duct ligation, 2 h): restored Akt phosphorylation to above normal levels
